Marks after values point to notes of the source that are not given here.
Assays:
ACAT = ACAT activity in liver microsomes of treated rats (Experimental Example 6, Step 3); assay type: in vivo, rat; conditions: liver microsomes of rats fed 6 weeks; for ACAT activity: average; for ACAT activity inhibition: relative to control group
Protocol: 1 g of the liver tissue taken from each sacrificed rat of Step 1 was homogenized in 5 ml of the first homogenization medium {0.1 M KH2PO4(pH 7.4), 0.1 mM EDTA and 10 mM β-mercaptoethanol}. The homogenate was centrifuged at 3,000×g for 15 minutes at 4° C. and the supernatant thus obtained was put into a tube and centrifuged at 15,000×g for 15 minutes at 4° C. to obtain a supernatant. The resulting supernatant was put into a 5 mL ultracentrifuge tube (Beckman) and centrifuged at 100,000×g for 1 hour at 4° C. The supernatant was removed off and pellets thus obtained were suspended in 3 mL of the first homogenization medium and centrifuged at 100,000×g for 1 hour at 4° C. The resulting supernatant was removed off and pellets thus obtained were suspended in 1 ml of the first homogenization medium. The resulting suspension was stored in a deep freezer.
6.67 μl of 1 mg/ml cholesterol solution in acetone was mixed with 6 μl of 10% Triton WR-1339 (Sigma Co.) in acetone. Acetone was removed from the mixture by evaporation under a nitrogen flow. To the resulting mixture, distilled water was added to adjust the concentration of cholesterol to 300 mg/10 ml. 10 μl of the resulting aqueous cholesterol solution was mixed with 10 μl of 1 M KH2PO4 (pH 7.4), 5 μl of 0.6 mM bovine serum albumin (BSA), 10 μl of the microsome solution obtained as above and 55 μl of distilled water (total 90 μl). The mixture was pre-incubated in a water bath at 37° C. for 30 minutes.
10 μl of oleyl-CoA solution […] prepared by mixing radiolabelled oleyl-CoA with oleyl-CoA was added to the pre-incubated mixture and the resulting mixture was incubated in a water bath at 37° C. for 30 minutes. 500 μl of isopropanol:heptane mixture (4:1 (v/v)), 300 μl of heptane and 200 μl of 0.1 M KH2PO4 (pH 7.4) were added to the mixture. The mixture was mixed vigorously using a vortex mixer and then allowed to stand at room temperature for 2 minutes.
200 μl of the resulting supernatant was put in a scintillation bottle and 4 mL of scintillation fluid (Lumac) was added thereto. The mixture was assayed for radioactivity with a scintillation counter. ACAT activity was calculated from the measured radioactivity, which was used to determine the ACAT activity inhibition (%).

[1] = test system: New Zealand White rabbits; experiment: Fatty streak in the main artery of cholesterol-fed rabbits (Experimental Example 7, Step 2); assay type: in vivo, rabbit; conditions: 8 weeks; for Proportion of stained region (fatty streak region) per unit area of the artery: 1% cholesterol + RC4 diet, lovastatin 0.003 wt %, BN compounds 0.025 wt %, average ± standard deviation; for Proportion of the fatty streak region compared to the control group: 1% cholesterol diet
Protocol: The rabbits raised in Step 1 were sacrificed and their chests were incised. The incision was performed downward to the diaphragm along the aortic arch and the fat surrounding the main artery was removed. The main artery was incised in the middle along the longitudinal axis from the second aortic intercostal artery anastomoses to the seventh aortic intercostal artery anastomoses and fixed with 10% neutral buffered formalin for 24 hours. Then, the incised main artery was pinned to a dish for staining of fatty streaks according to the method of Esper, E., et al. {J. Lab. Clin. Med., 121, 103-110 (1993)}. The artery was washed with propylene glycol three times for 2 minutes respectively. The artery was stained for 30 minutes with a saturated solution of Oil Red O (ORO, Sigma Co.) dissolved in propylene glycol. Thereafter, the artery was washed with 85% propylene glycol twice for 3 minutes respectively to remove the remaining staining solution and, then the artery was washed with physiological saline once. The artery was photographed and the photograph was traced. The proportion (%) of stained region (fatty streak region) per unit area of the artery was determined with an image analyzer (LEICA, Q-600, Germany). The significant differences between the test groups were tested by student t-test using Microsoft excel (version 7.0) program

[2] = test system: New Zealand White rabbits; experiment: Morphological observation of liver tissue of cholesterol-fed rabbits (Experimental Example 7, Step 4)
Protocol: Healthy male New Zealand White rabbits, each weighing about 2.0 to 2.3 kg, were supplied from Yeonam Horticulture and Animal Husbandry College (Korea) and raised under a breeding environment of temperature 20±2° C., relative humidity 55±10%, and photoperiod 12L/12D. The rabbits were divided into 5 groups, which were fed with 5 different diets, i.e., the control group fed with RC4 diet (Oriental Yeast Co., Japan) comprising moisture (7.6%), crude protein (22.8%), crude fat (2.8%), crude ash (8.8%), crude cellulose (14.4%) and soluble nitrogen-free substances (43.7%) plus cholesterol (1%) and four treatment groups further fed with lovastatin or BN30063, BN30064, BN30067 in addition to the feed of the control group. The rabbits were fed for 8 weeks while being allowed free access to the diets and water.
Proportions of cells in the liver acinus containing excessive fat or modified to have irregular arrangement due to a high cholesterol diet were classified into four grades, from 1+ to 4+.

[3] = test system: New Zealand White rabbits; experiment: Chemical analysis of blood of cholesterol-fed rabbits (Experimental Example 7, Step 3); conditions: 8 weeks
Protocol: Healthy male New Zealand White rabbits, each weighing about 2.0 to 2.3 kg, were supplied from Yeonam Horticulture and Animal Husbandry College (Korea) and raised under a breeding environment of temperature 20±2° C., relative humidity 55±10%, and photoperiod 12L/12D. […] The rabbits were fed for 8 weeks while being allowed free access to the diets and water.

[4] = test system: New Zealand White rabbits; experiment: Histological observation of the organs of treated rabbits (Experimental Example 7, Step 5); assay type: in vivo, rabbit; conditions: 8 weeks
Source text: Tissues of the lung, myocardium, kidney and muscle taken from the rabbits treated with the phenolic acid derivatives (BN30063, BN30064, BN30067) were visually examined for pathological changes using a microscope.

[5] = 1% cholesterol diet, lovastatin 1 mg/kg, BN compounds 0.025%, average ± standard deviation

COC(=O)C(CO)NC(=O)CCc1ccc(O)c(O)c1 (stereo not shown) [BN30063, 2-[3-(3,4-dihydroxyphenyl)propionylamino]-3-hydroxy propionic acid methyl ester]
ACAT activity (ACAT): 186.56 pmol/minute/mg protein
ACAT activity inhibition (ACAT): 0%
Proportion of stained region (fatty streak region) per unit area of the artery [1]: 44.8 ± 10.5%
Proportion of the fatty streak region compared to the control group [1]: significantly lower
Grade of abnormal fat content in the liver acinus ([2]; rabbit, in vivo): 3.71 ± 0.35
Liver tissue morphology ([2]; rabbit, in vivo): not observed any abnormality
HDL [3, 5]: 81 ± 16 mg/dL
TC [3, 5]: 1643 ± 194 mg/dL
Pathological changes in lung, myocardium, kidney and muscle (microscope) [4]: no pathogenic abnormality was found

CC(C)CC(NC(=O)CCc1ccc(O)c(O)c1)C(=O)O (stereo not shown) [BN30064, 2-[3-(3,4-dihydroxyphenyl)propionylamino]-4-methyl pentanoic acid]
ACAT activity (ACAT): 152.49 pmol/minute/mg protein
ACAT activity inhibition (ACAT): 18.07%
Proportion of stained region (fatty streak region) per unit area of the artery [1]: 31.2 ± 11.6^b %
Proportion of the fatty streak region compared to the control group [1]: significantly lower
Grade of abnormal fat content in the liver acinus ([2]; rabbit, in vivo): 3.70 ± 0.10
Liver tissue morphology ([2]; rabbit, in vivo): not observed any abnormality
HDL [3, 5]: 85 ± 15 mg/dL
TC [3, 5]: 1596 ± 191^b mg/dl
HDL compared to the control group [3]: significantly increased value
Total cholesterol compared to the control group [3]: significantly low
Pathological changes in lung, myocardium, kidney and muscle (microscope) [4]: no pathogenic abnormality was found

O=C(O)CC(NC(=O)CCc1ccc(O)c(O)c1)C(=O)O (stereo not shown) [BN30067, 2-[3-(3,4-dihydroxyphenyl)propionylamino]-succinic acid]
ACAT activity (ACAT): 160.01 pmol/minute/mg protein
ACAT activity inhibition (ACAT): 14.03%
Proportion of stained region (fatty streak region) per unit area of the artery [1]: 43.0 ± 13.9^b %
Proportion of the fatty streak region compared to the control group [1]: significantly lower
Grade of abnormal fat content in the liver acinus ([2]; rabbit, in vivo): 3.82 ± 0.8
Liver tissue morphology ([2]; rabbit, in vivo): not observed any abnormality
HDL [3, 5]: 81 ± 14 mg/dL
TC [3, 5]: 1710 ± 251 mg/dL
Pathological changes in lung, myocardium, kidney and muscle (microscope) [4]: no pathogenic abnormality was found

CC[C@H](C)C(=O)O[C@H]1C[C@@H](C)C=C2C=C[C@H](C)[C@H](CC[C@@H]3C[C@@H](O)CC(=O)O3)[C@H]21 [Lovastatin, reference compound]
ACAT activity (ACAT): 166.66 pmol/minute/mg protein
ACAT activity inhibition (ACAT): 10.46%
Proportion of stained region (fatty streak region) per unit area of the artery [1]: 30.3 ± 12^b %
Proportion of the fatty streak region compared to the control group [1]: significantly lower
Grade of abnormal fat content in the liver acinus ([2]; 1+ (0–25%), 2+ (26–50%), 3+ (51–75), 4+ (76–100%), rabbits, 1% cholesterol diet, 8 weeks, average ± standard deviation): 3.83 ± 0.5^b
Liver tissue morphology ([2]; rabbits, 1% cholesterol diet, 8 weeks): a grade higher than that of the control group
GOT [3, 5]: 105 ± 47^b IU/L
GPT [3, 5]: 47 ± 18 IU/L
HDL [3, 5]: 70 ± 6 mg/dL
TC [3, 5]: 1739 ± 86 mg/dL
GOT and GPT compared among the test groups ([3]; associated with hepatotoxicosis): highest GOT and GPT values among the test groups

From patent US7223793B2, “Phenolic acid derivatives and composition for preventing or treating blood lipid level-related diseases comprising the same” (Bionutrigen Co., Ltd., priority 2001, dated 2007)
